Data on 67 compounds can be found in PMC6792352, “Limited Chemical Structural Diversity Found to Modulate Thyroid Hormone Receptor in the Tox21 Chemical Library” (Environmental Health Perspectives, 2019).

SMILES strings stand for the structures. Structures can show the parent of a compound that is named as a salt.

A short description of this data set: in vitro. The conditions noted are these: rat, gh3-tre-luc cells.

As a reminder, the CC50 is the concentration that lowers cell viability or growth by half. Lower therefore signals harm at low concentration. `CCC1(c2ccccc2)C(=O)N(COC)C(=O)N(COC)C1=O` [Eterobarb] came in with a CC50 at 24 h (AC50 (uM) modified / 1000, Tox21_110001=Tox21_110991, viability, 1 nM T3 present, 24 h) of more than 50 µM. `NC(=O)N(O)[C@@H]1C=C[C@H](Oc2cccc(Oc3ccc(F)cc3)c2)C1` [CJ-013790] came in with a CC50 at 24 h (AC50 (uM) modified / 1000) of more than 90 µM. Still for that read-out and setting: to `C=C1/C(=C\C=C2/CCC[C@]3(C)[C@@H]([C@H](C)OCCC(C)(C)O)CC[C@@H]23)C[C@@H](O)C[C@@H]1O` [Maxacalcitol] belongs more than 50 µM. The same measure, in the same setting: to `C=C1c2cccc(O)c2C(O)=C2C(=O)[C@]3(O)C(O)=C(C(N)=O)C(=O)[C@@H](N(C)C)[C@@H]3[C@@H](O)[C@H]12` [Methacycline hydrochloride] belongs more than 20 µM.

Turning to `Cc1cccc(N=Nc2ccc(N(C)C)cc2)c1` [3'-Methyl-4-dimethylaminoazobenzene], it took 72.8 µM to reach half-maximal cytotoxicity (AC50 (uM) modified / 1000, Tox21_110001=Tox21_201755, viability, 1 nM T3 present, 24 h) (CC50 at 24 h) and the CC50 at 24 h (AC50 (uM) modified / 1000, Tox21_110001=Tox21_303022, viability, 1 nM T3 present, 24 h) is more than 90 µM.

On to `CC(C)CCCCCCN` [Isononanamine], for which, under “AC50 (uM) modified / 1000”, the half-maximal cytotoxic concentration (CC50) at 24 h is more than 90 µM. Regarding `C[C@H]1CC[C@@H]2[C@@H](C)[C@H]3[C@H](C[C@H]4[C@@H]5CC=C6C[C@@H](O[C@@H]7O[C@H](CO)[C@H](O)[C@H](O[C@@H]8O[C@H](CO)[C@@H](O)[C@H](O)[C@H]8O)[C@H]7O[C@@H]7O[C@@H](C)[C@H](O)[C@@H](O)[C@H]7O)CC[C@]6(C)[C@H]5CC[C@]34C)N2C1` [alpha-Solanine], the CC50 at 24 h is, setting by setting: (AC50 (uM) modified / 1000, Tox21_110001=Tox21_111132, viability, 1 nM T3 present, 24 h) 17.5 µM; (AC50 (uM) modified / 1000, Tox21_110001=Tox21_200104, viability, 1 nM T3 present, 24 h) 16.1 µM.

As for `C[C@]12CC[C@@H]3c4ccc(OS(=O)(=O)O)cc4CC[C@H]3[C@@H]1CCC2=O` [Estropipate], the CC50 at 24 h (AC50 (uM) modified / 1000) is more than 50 µM. The same measure, in the same setting: to `COc1ccc(NC(C)=O)cc1` [N-(4-Methoxyphenyl)acetamide] belongs more than 90 µM; to `Cc1ccccc1C(=O)Nc1ccc(C(=O)N2CCCC(O)c3cc(Cl)ccc32)c(C)c1` (stereo not drawn) [Tolvaptan], more than 50 µM; to `CCCCCCCCCCCCCCCCCC(=O)OCC(C)O` (stereo not drawn) [Octadecanoic acid, monoester with 1,2-propanediol], 20.7 µM. Take `Cc1cc(Br)ccc1NC(=O)CCl` [2-Chloro-N-(2-methyl-4-bromophenyl)acetamide]: the cytotoxic concentration (CC50) at 24 h (AC50 (uM) modified / 1000) amounted to 22.1 µM. On the same count and under the same terms, to `O=[N+]([O-])c1ccc(CCO)cc1` [2-(4-Nitrophenyl)ethanol] belongs more than 90 µM; to `Cc1cccc(C)c1NC(=O)c1cc(S(N)(=O)=O)c(Cl)cc1O` [Xipamide], more than 50 µM. `NNCCO` [2-Hydroxyethylhydrazine] returned a CC50 at 24 h (AC50 (uM) modified / 1000, Tox21_110001=Tox21_301204, viability, 1 nM T3 present, 24 h) of more than 90 µM. For the compound `Cc1c(C)c([N+](=O)[O-])c(C(C)(C)C)c([N+](=O)[O-])c1C` [1-tert-Butyl-3,4,5-trimethyl-2,6-dinitrobenzene], the cytotoxic concentration (CC50) at 24 h (AC50 (uM) modified / 1000) is 73.9 µM. The same measure, in the same setting: to `CC(C)CCCCCCCOC(=O)CCCCC(=O)OCCCCCCCC(C)C` [Diisodecyl hexanedioate] belongs more than 100 µM.

On to `O=C(O)c1ccccc1-c1c2ccc(=O)cc-2oc2cc(O)ccc12` [Fluorescein sodium], for which the 50% cytotoxic concentration (CC50) at 24 h (AC50 (uM) modified / 1000) was more than 50 µM. Take `C=CCSCC1Nc2cc(Cl)c(S(N)(=O)=O)cc2S(=O)(=O)N1` (stereo not drawn) [Althiazide]: the half-maximal cytotoxic concentration (CC50) at 24 h (AC50 (uM) modified / 1000) is more than 50 µM. The same measure, in the same setting: to `CCCNC(C)C(=O)Nc1ccccc1C` (stereo not drawn) [Prilocaine hydrochloride] belongs more than 50 µM; to `COC(OC)C(C)c1ccccc1` (stereo not drawn) [2-Phenylpropionaldehyde dimethyl acetal], more than 90 µM; to `CC[C@H](CC[C@@H](C)[C@H]1CC[C@H]2[C@@H]3CC=C4C[C@@H](O)CC[C@]4(C)[C@H]3CC[C@]12C)C(C)C` [beta-Sitosterol], more than 50 µM. Same read-out and setting: to `Cc1ccccc1OCC(O)CO` (stereo not drawn) [Mephenesin] belongs more than 50 µM; to `c1ccc2c(c1)[nH]c1ccccc12` [Carbazole], more than 90 µM; to `Cc1cn([C@H]2C=C[C@@H](CO)O2)c(=O)[nH]c1=O` [Stavudine], more than 90 µM. Still for that read-out and setting: to `CN(CCOc1ccc(NS(C)(=O)=O)cc1)CCc1ccc(NS(C)(=O)=O)cc1` [Dofetilide] belongs more than 50 µM; to `C[Si](Cn1cncn1)(c1ccc(F)cc1)c1ccc(F)cc1` [Flusilazole], more than 90 µM; to `CCOP(=S)(OCC)Oc1ccc([N+](=O)[O-])cc1` [Parathion], more than 90 µM. Take `CCOc1ccc(/N=N/c2ccc(N)cc2N)cc1` [Ethoxazene]: the CC50 at 24 h (AC50 (uM) modified / 1000) was more than 50 µM.

As to `Nc1ncnc(Nc2ccc(Cl)cc2)n1` [Chlorazanil], where the note is “AC50 (uM) modified / 1000”, the CC50 at 24 h is more than 50 µM. On to `CNNCc1ccc(C(=O)NC(C)C)cc1` [Procarbazine hydrochloride], for which the cytotoxic concentration (CC50) at 24 h (AC50 (uM) modified / 1000) is more than 50 µM.

In turn, `NC(=O)C1c2ccccc2CCc2ccccc21` [Cyheptamide] came in with a cytotoxic concentration (CC50) at 24 h (AC50 (uM) modified / 1000) of more than 50 µM. On the same count and under the same terms, to `C=C(C)C(=O)O` [Methacrylic acid] belongs more than 90 µM. Still for that read-out and setting: to `COc1cc(OC)nc(NC(=O)NS(=O)(=O)c2ncccc2C(=O)N(C)C)n1` [Nicosulfuron] belongs more than 90 µM. As for `CCc1ccc(CCOc2ccc(CC3SC(=O)NC3=O)cc2)nc1` (stereo not drawn) [Pioglitazone hydrochloride], where the note is “AC50 (uM) modified / 1000”, the cytotoxic concentration (CC50) at 24 h was more than 90 µM. Same read-out and setting: to `O=S1OCCO1` [Glycol sulfite] belongs more than 100 µM.

As to `O=C(O)c1cccc(Oc2ccccc2)c1` [3-Phenoxybenzoic acid], the CC50 at 24 h (AC50 (uM) modified / 1000) is more than 90 µM. On the same count and under the same terms, to `CN[C@]1(c2ccccc2Cl)CCCCC1=O` [(S)-Ketamine] belongs more than 50 µM; to `CO[C@@]1(NC(=O)CSC(F)F)C(=O)N2C(C(=O)O)=C(CSc3nnnn3CCO)CO[C@@H]21` [Flomoxef], more than 50 µM.

Consider `CN1CCC(OC(=O)C(Oc2ccc(Cl)cc2)Oc2ccc(Cl)cc2)CC1` [Lifibrate], for which the cytotoxic concentration (CC50) at 24 h (AC50 (uM) modified / 1000) amounted to 27.6 µM. On the same count and under the same terms, to `CC(C)c1ccc(O)c(C(C)C)c1` [2,4-Diisopropylphenol] belongs more than 90 µM; to `CCC(=O)O[C@]1(C(=O)CCl)[C@@H](C)C[C@H]2[C@@H]3CCC4=CC(=O)C=C[C@]4(C)[C@@]3(F)[C@@H](O)C[C@@]21C` [Clobetasol propionate], more than 50 µM. On the same count and under the same terms, to `c1cc2ccc3ccc4ccc5cccc6c(c1)c2c3c4c56` [Benzo(g,h,i)perylene] belongs more than 4 µM. Same read-out and setting: to `CC(C)(C)c1cccc(O)c1` [3-tert-Butylphenol] belongs more than 90 µM; to `Cc1cc(Cc2ccc(N)c(C)c2)ccc1N` [4,4'-Diamino-3,3'-dimethyldiphenylmethane], more than 90 µM; to `Cc1cccc[n+]1[O-]` [2-Methylpyridine 1-oxide], more than 90 µM.

Compound `C[C@]12C=CC(=O)C=C1[C@@H](F)C[C@@H]1[C@@H]2[C@@H](O)C[C@@]2(C)[C@H]1CC[C@]2(O)C(=O)CO` [Fluprednisolone] came in with a CC50 at 24 h (AC50 (uM) modified / 1000) of more than 50 µM.

Turning to `CCc1cc(OC)c(C[C@H](C)N)cc1OC` [(+)-2,5-Dimethoxy-4-ethylamphetamine hydrochloride], half-maximal cytotoxicity (AC50 (uM) modified / 1000) (CC50 at 24 h) was put at 35.7 µM.

Turning to `CC(C)Cc1ccccc1` [Isobutylbenzene], the CC50 at 24 h (AC50 (uM) modified / 1000) is more than 90 µM.

The compound `O=C(O)CC/C=C\CC[C@@H]1[C@@H](N2CCCCC2)[C@@H](O)C[C@@H]1OCc1ccc(-c2ccccc2)cc1` [Vapiprost hydrochloride] displayed a CC50 at 24 h (AC50 (uM) modified / 1000) of more than 50 µM. The same measure, in the same setting: to `CC(=O)Nc1ccc2c(c1)Cc1cc(NC(C)=O)ccc1-2` [2,7-Acetylaminofluorene] belongs more than 90 µM; to `COC(=O)c1ccccc1C(=O)c1ccc(OCCN2CCCCC2)cc1` [Pitofenone hydrochloride], 42.7 µM; to `CN1C(C(=O)Nc2ccccn2)=C(O)c2sc(Cl)cc2S1(=O)=O` [Lornoxicam], more than 50 µM. Still for that read-out and setting: to `CCCCC(CC)COC(=O)/C=C/c1ccc(OC)cc1` (stereo not drawn) [2-Ethylhexyl trans-4-methoxycinnamate] belongs more than 90 µM.

Where the note is “AC50 (uM) modified / 1000”, `CCCCC(O)(Cn1cncn1)c1ccc(Cl)cc1Cl` (stereo not drawn) [Hexaconazole] displayed a CC50 at 24 h of 54.6 µM. On the same count and under the same terms, to `O=C(OCc1ccccc1)c1ccccc1O` [Benzyl salicylate] belongs more than 90 µM. Regarding `C=C(C)CNCC` [N-Ethyl-2-methylallylamine], the CC50 at 24 h (AC50 (uM) modified / 1000) was more than 90 µM. On the same count and under the same terms, to `CCc1ccc(CC)cc1` [1,4-Diethylbenzene] belongs more than 90 µM; to `Cc1cccn2c(=O)c(-c3nnn[nH]3)cnc12` [Pemirolast potassium], more than 50 µM.

In the case of `CN1[C@@H]2CC[C@H]1C[C@@H](OC(c1ccccc1)c1ccc(Cl)cc1)C2` (stereo partly drawn) [Clobenztropine], it took 5.13 µM to reach half-maximal cytotoxicity (AC50 (uM) modified / 1000) (CC50 at 24 h). In the case of `O=C=NC1CCCCC1` [Isocyanatocyclohexane], the CC50 at 24 h (AC50 (uM) modified / 1000, Tox21_110001=Tox21_200234, viability, 1 nM T3 present, 24 h) is more than 90 µM.

`O=C1OC(=O)C2CCCCC12` (stereo not drawn) [Hexahydrophthalic anhydride] displayed a CC50 at 24 h (AC50 (uM) modified / 1000) of more than 90 µM.

On to `CN1CCN(C(=O)O[C@H]2c3nccnc3C(=O)N2c2ccc(Cl)cn2)CC1` [Eszopiclone], for which the 50% cytotoxic concentration (CC50) at 24 h (AC50 (uM) modified / 1000) was more than 50 µM. `COP(N)(=S)Oc1ccccc1C(=O)OC(C)C` (stereo not drawn) [Isocarbophos] displayed a CC50 at 24 h (AC50 (uM) modified / 1000, Tox21_110001=Tox21_301328, viability, 1 nM T3 present, 24 h) of more than 90 µM. `O=C(c1ccc2c(c1)C(=O)OC2=O)c1ccc2c(c1)C(=O)OC2=O` [Benzophenonetetracarboxylic dianhydride] showed a CC50 at 24 h (AC50 (uM) modified / 1000) of more than 90 µM. Still for that read-out and setting: to `O=C1c2c(O)ccc(O)c2C(=O)c2c(NCCNCCO)ccc(NCCNCCO)c21` [Mitoxantrone dihydrochloride] belongs 0.988 µM; to `COc1cccc2c1[C@@H]1CN(CCCCn3c(=O)[nH]c4c(sc5ncc(-c6ccccc6)nc54)c3=O)C[C@@H]1CO2` [Fiduxosin hydrochloride], 13.1 µM.
